Data published in patent US5686486A, “4-hydroxy-benzopyran-2-ones and 4-hydroxy-cycloalkyl[b]pyran-2-ones useful to treat retroviral infections” (priority 1995, dated 1997).
Values joined by “and” are separate entries in the source; they are usually repeats but may differ in a detail not shown here. Equal values may be shown once.

What was measured:
HIV-1 protease [1] = biological target: T1, HIV-1 protease (Human immunodeficiency virus type 1 group M subtype B, UniProt P04585); experiment: biochemical; conditions: for inhibition at 0.123 µM: read-out: HIV-1 Protease % Inhib, dose 0.123 uM; for inhibition at 0.37 µM: read-out: HIV-1 Protease % Inhib, dose 0.370 uM; for inhibition at 1.1 µM: read-out: HIV-1 Protease % Inhib, dose 1.100 uM; for inhibition at 3.3 µM: read-out: HIV-1 Protease % Inhib, dose 3.300 uM; for inhibition at 10 µM: read-out: HIV-1 Protease % Inhib, dose 10.000 uM; for inhibition at 30 µM: read-out: HIV-1 Protease % Inhib, dose 30.000 uM
Summary of the method: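 Percent inhibition derived from fluorescent cleavage product separated by filtration after streptavidin-bead capture of intact biotin/FITC substrate. Reaction: enzyme (10 μl, 0.1 μM stock) with substrate (20 μl, 0.2 μM stock) and compound, 1 h at room temperature in dark, pH 5.5 acetate buffer with 1.0 M NaCl and 0.05% NP-40.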

HIV-1 protease [2] = biological target: T1, HIV-1 protease; experiment: biochemical; conditions: read-out: HIV-1 FITC KI
Summary of the method: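 Enzyme (40 nM stock) and substrate (200 μM stock) incubated with inhibitor, 24–48 two-fold serial concentrations, for 90 min at room temperature, then quenched with avidin beads. Nonlinear least-squares analysis gives Ki; a known-Ki inhibitor validates each run.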

Cc1ccc(S(=O)(=O)n2cncc2C[C@H](NC(=O)OC(C)(C)C)C(=O)Nc2cccc(C(c3c(O)c4c(oc3=O)CCCCCC4)C3CC3)c2)cc1 (stereo partly drawn) [Example 199, Carbamic acid, [2-[[3-[cyclopropyl(5,6,7,8,9,10-hexahydro-4-hydroxy-2-oxo-2H-cycloocta[b]pyran-3-yl)methyl]phenyl]amino]-1-[[1-(S)-[(4-methylphenyl)sulfonyl]-1H-imidazol-5-yl]methyl]-2-oxoethyl]-, 1,1-dimethylethyl ester]
inhibition at 0.123 µM (HIV-1 protease [1]): 56%
inhibition at 0.37 µM (HIV-1 protease [1]): 86.5%
inhibition at 1.1 µM (HIV-1 protease [1]): 97.6%
inhibition at 3.3 µM (HIV-1 protease [1]): 106%
inhibition at 10 µM (HIV-1 protease [1]): 114%
inhibition at 30 µM (HIV-1 protease [1]): 107%
Ki (HIV-1 protease [2]): 10.4 nM

CCC1CCCCCc2c1oc(=O)c(C(c1ccccc1)C1CC1)c2O (stereo not shown) [Example 127, 3-(Cyclopropyl-phenyl-methyl)-10-ethyl-4-hydroxy-5,6,7,8,9,10-hexahydro-cycloocta[b]pyran-2-one]
inhibition at 0.123 µM (HIV-1 protease [1]): 52.3%
inhibition at 0.37 µM (HIV-1 protease [1]): 92.5%
inhibition at 1.1 µM (HIV-1 protease [1]): 112%
inhibition at 3.3 µM (HIV-1 protease [1]): 115%
inhibition at 10 µM (HIV-1 protease [1]): 117%
inhibition at 30 µM (HIV-1 protease [1]): 111%
Ki (HIV-1 protease [2]): 33 nM

O=c1oc2c(c(O)c1C(c1ccccc1)C1CC1)CCCCC2CC1CC1 (stereo not shown) [Example 125, 9-Cyclopropylmethyl-3-(cyclopropyl-phenyl-methyl)-4-hydroxy-6,7,8,9-tetrahydro-5-H-cyclohepta[b]pyran-2-one]
inhibition at 0.41 µM (HIV-1 protease [1]; read-out: HIV-1 Protease % Inhib, dose 0.410 uM): 101%
inhibition at 1.23 µM (HIV-1 protease [1]; read-out: HIV-1 Protease % Inhib, dose 1.230 uM): 108%
inhibition at 3.7 µM (HIV-1 protease [1]; read-out: HIV-1 Protease % Inhib, dose 3.700 uM): 108%
inhibition at 11 µM (HIV-1 protease [1]; read-out: HIV-1 Protease % Inhib, dose 11.000 uM): 108%
inhibition at 33 µM (HIV-1 protease [1]; read-out: HIV-1 Protease % Inhib, dose 33.000 uM): 102%
inhibition at 100 µM (HIV-1 protease [1]; read-out: HIV-1 Protease % Inhib, dose 100.000 uM): 105%
Ki (HIV-1 protease [2]): 24 nM

CC(C)(C)OC(=O)NCC(=O)Nc1cccc(C(c2c(O)c3c(oc2=O)CCCCCC3)C2CC2)c1 (single isomer, unassigned) [Example 239, Carbamic acid, [2-[[3-(R or S)-[cyclopropyl(5,6,7,8,9,10)-hexahydro-4-hydroxy-2-oxo-2H-cycloocta[b]pyran-3-yl)methyl]phenyl]amino]-2-oxoethyl]-, 1,1-dimethyl ethyl ester]
HIV-1 Protease % Inhib (HIV-1 protease [1]; dose 0.123 uM): 69.55%
HIV-1 Protease % Inhib (HIV-1 protease [1]; dose 0.370 uM): 88.01%
HIV-1 Protease % Inhib (HIV-1 protease [1]; dose 1.100 uM): 98.34%
HIV-1 Protease % Inhib (HIV-1 protease [1]; dose 3.300 uM): 102.72%
HIV-1 Protease % Inhib (HIV-1 protease [1]; dose 10.000 uM): 107.4%
HIV-1 Protease % Inhib (HIV-1 protease [1]; dose 30.000 uM): 100.72%
Ki (HIV-1 protease [2]): 2.2 nM

CC(CO)C1CCCCCc2c1oc(=O)c(C(c1ccccc1)C1CC1)c2O (stereo not shown) [Example 161, 3-(Cyclopropylphenylmethyl)-5,6,7,8,9,10-hexahydro-4-hydroxy-10-(2-hydroxy-1-methylethyl)-2H-cyclooct[b]pyran-2-one]
inhibition at 0.123 µM (HIV-1 protease [1]): 20%
inhibition at 0.37 µM (HIV-1 protease [1]): 67.3%
inhibition at 1.1 µM (HIV-1 protease [1]): 98.7%
inhibition at 3.3 µM (HIV-1 protease [1]): 104%
inhibition at 10 µM (HIV-1 protease [1]): 106%
inhibition at 30 µM (HIV-1 protease [1]): 111%
Ki (HIV-1 protease [2]): 32 nM

CC(C)C(c1cccc(NS(=O)(=O)c2cn(C)cn2)c1)c1c(O)c2c(oc1=O)CCCCCC2 (stereo not shown) [Example 374, N-[3-[1-(5,6,7,8,9,10-Hexahydro-4-hydroxy-2-oxo-2H-cycloocta[b]pyran-3-yl)-2-methylpropyl]phenyl]-1-methyl-1H-imidazole4-sulfonamide]
inhibition at 0.123 µM (HIV-1 protease [1]): 121%
inhibition at 0.37 µM (HIV-1 protease [1]): 121%
inhibition at 1.1 µM (HIV-1 protease [1]): 131%
inhibition at 3.3 µM (HIV-1 protease [1]): 125%
inhibition at 10 µM (HIV-1 protease [1]): 129%
inhibition at 30 µM (HIV-1 protease [1]): 128%
Ki (HIV-1 protease [2]): 1.3 nM and 0.72 nM

CC(C)C(c1cccc(NS(=O)(=O)c2ccc(Cl)cc2)c1)c1c(O)c2c(oc1=O)CCCCCC2 (stereo not shown) [Example 373, 4-Chloro-N-[3-[1-(6,7,8,9,10-hexahydro-4-hydroxy-2-oxo-2H-cycloocta[b]pyran-3-yl)-2-methylpropyl]phenyl]-benzenesulfonamide]
inhibition at 0.123 µM (HIV-1 protease [1]): 31.8%
inhibition at 0.37 µM (HIV-1 protease [1]): 68.9%
inhibition at 1.1 µM (HIV-1 protease [1]): 87%
inhibition at 3.3 µM (HIV-1 protease [1]): 97.1%
inhibition at 10 µM (HIV-1 protease [1]): 102%
inhibition at 30 µM (HIV-1 protease [1]): 105%
Ki (HIV-1 protease [2]): 18.3 nM

CC(C)CC1CCCCCc2c1oc(=O)c(C(c1ccccc1)C1CC1)c2O (stereo not shown) [Example 131, 3-(Cyclopropyl-phenyl-methyl)-4-hydroxy-10-isobutyl-5,6,7,8,9,10-hexahydro-cycloocta[b]pyran-2-one]
inhibition at 0.123 µM (HIV-1 protease [1]): 30.7%
inhibition at 0.37 µM (HIV-1 protease [1]): 74.2%
inhibition at 1.1 µM (HIV-1 protease [1]): 98.7%
inhibition at 3.3 µM (HIV-1 protease [1]): 112%
inhibition at 10 µM (HIV-1 protease [1]): 116%
inhibition at 30 µM (HIV-1 protease [1]): 106%
Ki (HIV-1 protease [2]): 30 nM

C=CS(=O)(=O)Nc1cccc(C(c2c(O)c3c(oc2=O)CCCCCC3)C2CC2)c1 (stereo not shown) [Example 316, N-[3-[Cycloproopyl(5,6,7,8,9,10-hexahydro4-hydroxy-2-oxo-2H-cycloocta[b]pyran-3-yl)methyl]phenyl]-ethenesulfonamide]
inhibition at 0.37 µM (HIV-1 protease [1]): 31.2%
inhibition at 1.1 µM (HIV-1 protease [1]): 77.8%
inhibition at 3.3 µM (HIV-1 protease [1]): 98.1%
inhibition at 10 µM (HIV-1 protease [1]): 103%
inhibition at 30 µM (HIV-1 protease [1]): 111%
Ki (HIV-1 protease [2]): 18 nM

O=c1oc2c(c(O)c1C(c1cccc(NS(=O)(=O)CCc3ccccc3)c1)C1CC1)CCCCCC2 (stereo not shown) [Example 346, N-[3-[Cyclopropyl(5,6,7,8,9,10-hexahydro-4-hydroxy-2-oxo-2H-cycloocta[b]pyran-3-yl)methyl]phenyl]-benzeneethanesulfonamide]
inhibition at 0.123 µM (HIV-1 protease [1]): 75.1%
inhibition at 0.37 µM (HIV-1 protease [1]): 92.5%
inhibition at 1.1 µM (HIV-1 protease [1]): 97.3%
inhibition at 3.3 µM (HIV-1 protease [1]): 102%
inhibition at 10 µM (HIV-1 protease [1]): 103%
inhibition at 30 µM (HIV-1 protease [1]): 97%
Ki (HIV-1 protease [2]): 3.85 nM

CN1CCN(S(=O)(=O)Nc2cccc(C(c3c(O)c4c(oc3=O)CCCCCC4)C3CC3)c2)CC1 (stereo not shown) [Example 399, N-[3-[Cyclopropyl(5,6,7,8,9,10-hexahydro-4-hydroxy-2-oxo-2H-cycloocta[b]pyran-3-yl)methyl]phenyl]4-methyl-1-piperazinesulfonamide]
inhibition at 0.37 µM (HIV-1 protease [1]): 21.6%
inhibition at 1.1 µM (HIV-1 protease [1]): 54.1%
Ki (HIV-1 protease [2]): 186 nM

CC(C)CCC1CCCCc2c1oc(=O)c(C(c1ccccc1)C1CC1)c2O (stereo not shown) [Example 184, 3-(Cyclopropylphenylmethyl)-6,7,8,9-tetrahydro4-hydroxy-9-(3-methylbutyl)-cyclohepta[b]pyran-2(5H)-one]
inhibition at 0.37 µM (HIV-1 protease [1]): 18%
inhibition at 1.1 µM (HIV-1 protease [1]): 60.7%
inhibition at 3.3 µM (HIV-1 protease [1]): 86%
inhibition at 10 µM (HIV-1 protease [1]): 96.5%
inhibition at 30 µM (HIV-1 protease [1]): 93.1%
Ki (HIV-1 protease [2]): 46 nM

CS(=O)(=O)Nc1cccc(C(c2c(O)c3c(oc2=O)CCCCC3)C2CC2)c1 (stereo not shown) [Example 364, N-[3-[Cyclopropyl(2,5,6,7,8,9-hexahydro-4-hydroxy-2-oxocyclohepta[b]pyran-3-yl)methyl]phenyl]-methanesulfonamide]
inhibition at 0.37 µM (HIV-1 protease [1]): 17.2%
inhibition at 1.1 µM (HIV-1 protease [1]): 53.5%
inhibition at 3.3 µM (HIV-1 protease [1]): 78.7%
inhibition at 10 µM (HIV-1 protease [1]): 100%
inhibition at 30 µM (HIV-1 protease [1]): 90.2%
Ki (HIV-1 protease [2]): 118 nM

O=c1oc2c(c(O)c1C(c1cccc(NS(=O)(=O)c3cccc(CO)c3)c1)C1CC1)CCCCCC2 (stereo not shown) [Example 356, N-[3-[Cyclopropyl(5,6,7,8,9,10-hexahydro-4-hydroxy-2-oxo-2H-cycloocta[b]pyran-3-yl)methyl]phenyl]-3-[methanol]-benzenesulfonamide]
inhibition at 0.123 µM (HIV-1 protease [1]): 97.7%
inhibition at 0.37 µM (HIV-1 protease [1]): 97.2%
inhibition at 1.1 µM (HIV-1 protease [1]): 97.9%
inhibition at 3.3 µM (HIV-1 protease [1]): 101%
inhibition at 10 µM (HIV-1 protease [1]): 102%
inhibition at 30 µM (HIV-1 protease [1]): 100%
Ki (HIV-1 protease [2]): 1.32 nM

CC(=O)Nc1ccc(S(=O)(=O)Nc2cccc(C(c3c(O)c4c(oc3=O)CCCCCC4)C3CC3)c2)cc1 (stereo not shown) [Example 307, N-[4-[[[3-[Cyclopropyl(5,6,7,8,9,10-hexahydro-4-hydroxy-2-oxo-2H-cycloocta[b]pyran-3-yl)methyl]phenyl]amino]sulfonyl]phenyl]-acetamide]
inhibition at 0.123 µM (HIV-1 protease [1]): 19.5%
inhibition at 0.37 µM (HIV-1 protease [1]): 66.5%
inhibition at 1.1 µM (HIV-1 protease [1]): 85.2%
inhibition at 3.3 µM (HIV-1 protease [1]): 97.8%
inhibition at 10 µM (HIV-1 protease [1]): 105%
inhibition at 30 µM (HIV-1 protease [1]): 90.3%
Ki (HIV-1 protease [2]): 7.6 nM

CC(C)(C)OC(=O)NCC(=O)Nc1cccc(C(c2c(O)c3c(oc2=O)CCCCCC3)C2CC2)c1 (single isomer, unassigned) [Example 238, Carbamic acid, [2-[[3-(R or S)-[cyclopropyl(5,6,7,8,9,10-hexahydro-4-hydroxy-2-oxo-2H-cycloocta[b]pyran-3-yl)methyl]phenyl]amino]-2-oxoethyl]-, 1,1-dimethyl ethyl ester]
HIV-1 Protease % Inhib (HIV-1 protease [1]; dose 0.123 uM): 30.5%
inhibition at 0.37 µM (HIV-1 protease [1]): 76.4%
inhibition at 1.1 µM (HIV-1 protease [1]): 96.3%
inhibition at 3.3 µM (HIV-1 protease [1]): 99.9%
inhibition at 10 µM (HIV-1 protease [1]): 116%
inhibition at 30 µM (HIV-1 protease [1]): 115%
Ki (HIV-1 protease [2]): 13.4 nM

O=c1oc2c(c(O)c1C(c1cccc(NS(=O)(=O)c3ccc(O)cc3)c1)C1CC1)CCCCCC2 (stereo not shown) [Example 407, N-[3-[Cyclopropyl(5,6,7,8,9,10-hexahydro-4-hydroxy-2-oxo-2H-cycloocta[b]pyran-3-yl)methyl]phenyl]-4-hydroxy-benzenesulfonamide]
inhibition at 0.123 µM (HIV-1 protease [1]): 26.8%
inhibition at 0.37 µM (HIV-1 protease [1]): 74.7%
inhibition at 1.1 µM (HIV-1 protease [1]): 91.2%
inhibition at 3.3 µM (HIV-1 protease [1]): 98.1%
inhibition at 10 µM (HIV-1 protease [1]): 107%
inhibition at 30 µM (HIV-1 protease [1]): 113%
Ki (HIV-1 protease [2]): 6.6 nM
